Laboratory results: US6703229B2, “Aryl propenal double bond reductase” (Washington State University Research Foundation, priority 2000, dated 2004)

How the values were obtained:
[1] = molecular target: reverse transcriptase (Human immunodeficiency virus type 1 group M subtype B, UniProt P04585); conditions: cited from earlier work
[2] = tested on: aryl propenal double bond reductase (SEQ ID NO:2); experiment: Enzyme assay of recombinant aryl propenal double bond reductase (HPLC of products); format: biochemical, Pinus taeda; conditions: for reduction of the aryl propenal substrate by the recombinant reductase: recombinant enzyme expressed from SEQ ID NO:1, in the presence of [4R]-NADPH
Protocol: Enzyme assays—Each non-radioactive assay (250 μl) consisted of buffer (50 mM Tris-HCl, pH 8.0), substrate (12.5 mM in DMSO, 10 μl), NADPH (25 mM in H2O, 10 μl), and the enzyme preparation (30 μl containing 5 mM DTT). Controls were performed using either denatured enzyme (boiled 96° C., 10 min) or in absence of enzyme. After 1 hour incubation at 30° C. with shaking, the reaction mixture was extracted with EtOAc (500 μl×2) with the EtOAc solubles combined and evaporated to dryness in vacuo. The EtOAc solubles were dissolved in CH3CN (10 μl) and then in 3% AcOH (90 μl), and subjected to reverse-phase HPLC with UV detection (280 nm).
Radioactive assays were performed in the same way as the non-radioactive assay with the following exceptions: the reaction was initiated by addition of [4S-^3H] or [4R-^3H]NADPH (25 mM in H2O, 666.7 kBq 10 μl). The EtOAc solubles were reconstituted in CH3CN/H2O and subjected to reverse-phase HPLC as described above with 0.5 ml fractions collected and an aliquot (100 μl) of each removed for scintillation counting to determine the level of incorporation of ^3H into the products.
Reversed phase HPLC separation of substrates and products—Separation of dehydrodiconiferyl alcohol (DDC), dihydrodehydrodiconiferyl alcohol (DDDC), dehydrodiconiferyl aldehyde (DDCA), dihydrodehydrodiconiferyl aldehyde (DDDCA) coniferyl alcohol (CA), dihydroconiferyl alcohol (DCA), coniferyl aldehyde (CAL), and dihydroconiferyl aldehyde (DCAL) was carried out using a reverse-phase column (Symmetry Shield RP8, 3.9×150 mm, Waters) as follows: CH3CN-3% AcOH in H2O (1:9) from 0 to 5 min, then linear gradient to 1:3 between 5 to 30 min, and finally linear gradient to 100% CH3CN over 25 min, at a flow rate of 1 ml/min.

[3] = tested on: cAMP-phosphodiesterase; conditions: cited from earlier work

For `COc1cc(C[C@H]2C(=O)OC[C@@H]2Cc2ccc(OC)c(OC)c2)ccc1O` [(−)-arctigenin], which “effectiveness against HIV (reverse transcriptase inhibitory activity)” value [1] is on record?
The value was “effective against HIV”.

Which “reduction of the aryl propenal substrate by the recombinant reductase” value [2] does the source give for `COc1cc(/C=C/C=O)ccc1O` [coniferyl aldehyde] here?
The value was “capable of reducing coniferyl aldehyde to dihydroconiferyl aldehyde”.

For `COc1cc([C@@H]2Oc3c(OC)cc(/C=C/C=O)cc3[C@H]2CO)ccc1O` [dehydrodiconiferyl aldehyde], which “reduction of the aryl propenal substrate by the recombinant reductase” value [2] is on record?
Its value is “regiospecifically reduce the double-bond”.

With `COc1cc(C[C@H]2COC(=O)[C@@H]2Cc2ccc(O)c(OC)c2)ccc1O` [matairesinol] as the molecule, how does the “inhibition of cAMP-phosphodiesterase” value [3] read?
Its value is “inhibit cAMP-phosphodiesterase”.

For `CC(Cc1ccc(O)c(O)c1)C(C)Cc1ccc(O)c(O)c1` (stereo not shown) [nordihydroguaiaretic acid], which “effectiveness against HIV (reverse transcriptase inhibitory activity)” value [1] is on record?
The value was “effective against HIV”.

Which “effectiveness against HIV (reverse transcriptase inhibitory activity)” value [1] does the source give for (−)-trachelogenin here?
The value was “effective against HIV”.

B1: aryl propenal double bond reductase (SEQ ID NO:2): Pinus taeda aryl propenal double bond reductase encoded by cDNA SEQ ID NO:1, expressed in E. coli (protein)
chain: MEQRVPNRELILVAYANEGPVTDSHLNIRETKLDLGSVGKDGSSGDVAVQNLWISVDPYLRQLMKESDDGLYLPSFPLNQAIRSILVGKVVASANPAFEVGDIVSGFYQVSEYAIVPRGDLMKIDTSVVKPSDYLGLLGMPALTAWAGFIIVGEPKPGDEVFVSAAAGSVGMLVGQLAKIKSCRVVGSAGSDQKVKLLKEFGFDDAFNYKCETDLDAALSRYFPRGIDIYFDNVGGRMLEAVLNHINMKARIPLCGMISQYNQEWKQRFGVRNLLNLVGKCAKMEGFMSGQYHHRMGEFFEEMTGYIKQGKIKYKEDVKVGLDSFLEAFNSMFTGENIGKPVIYLGPPLPK
Which “enzymatic activity of the expressed reductase” value ([2]; expressed in E. coli, GST fusion removed) does the source give for B1 here?
The value was “enzymatically active”.
